According to PubChem BioAssay AID504463 (NMMLSC, 2011):
Active and inactive are the calls of the source.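 Rule for the calls: active = fluorescence span above 25 thousand equivalent fluorochrome units, or a 33 microM versus DMSO difference score above 25; inactive = the rest.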

The compounds below were run on S. cerevisiae s288c autofluorescence, flow cytometry 520 nm, 3 h (assay: yeast autofluorescence interference at GFP wavelength, dose response, artefact control for yeast TOR pathway modulator project, flow cytometry, strain s288c, KU SAR set 2, multiplex (AID 504463)). Conditions: at 33.3 µM; hits give high values.

fluorescence change (kMESF span) | SMILES
0.07 (inactive) | CNc1nc(N)c(C(=O)c2ccc(C)c(C)c2)c(Nc2cccc(Cl)c2)n1
0.14 (inactive) | CNc1nc(N)c([N+](=O)[O-])c(Nc2cccc(OC)c2)n1
0.07 (inactive) | CNc1nc(N)c([N+](=O)[O-])c(Nc2cccc(Oc3ccccc3)c2)n1
0.06 (inactive) | COc1ccccc1-c1cc(Nc2cc(C)[nH]n2)nc(NCc2ccccc2)n1
0.07 (inactive) | CNc1nc(NC)c([N+](=O)[O-])c(Nc2cccc(Cl)c2)n1
0 (inactive) | CCNc1nc(NC2CCCCC2)c([N+](=O)[O-])c(N2CCOCC2)n1
0 (inactive) | O=[N+]([O-])c1c(NC2CCCCC2)nc(NCc2ccccc2)nc1N1CCOCC1
0.07 (inactive) | CNc1nc(N)c([N+](=O)[O-])c(Nc2ccccc2F)n1
0.07 (inactive) | Cc1cc(Nc2cc(Nc3ccccc3)nc(NCc3ccccc3)n2)n[nH]1
0.07 (inactive) | CNc1nc(N)c([N+](=O)[O-])c(Nc2cccc(Br)c2)n1
0.06 (inactive) | COC(=O)c1cccc(-c2cc(Nc3cc(C)[nH]n3)nc(NCc3ccccc3)n2)c1
0.14 (inactive) | CNc1nc(NC2CCCCC2)c([N+](=O)[O-])c(N2CCOCC2)n1
0.13 (inactive) | COc1cccc(-c2cc(Nc3cc(C)[nH]n3)nc(NCc3ccccc3)n2)c1
0.06 (inactive) | CNc1nc(N)cc(Nc2cccc(Cl)c2)n1
0.49 (inactive) | CCNc1nc(N)c([N+](=O)[O-])c(Nc2cccc(Cl)c2)n1
0.06 (inactive) | Cc1cc(Nc2cc(-c3ccccc3)nc(NCc3ccccc3)n2)n[nH]1
0 (inactive) | CNc1nc(N)cc(Nc2ccccc2F)n1
0.07 (inactive) | CNc1nc(N)c([N+](=O)[O-])c(Nc2ccccc2Br)n1
0.13 (inactive) | CCOC(=O)c1c(N)nc(NC)nc1Nc1cccc(F)c1
0.06 (inactive) | CNc1nc(N)cc(Oc2cccc(Cl)c2)n1
